Measured values published in patent US10081615B2, “Sulfamate derivative compounds for use in treating or alleviating pain” (Bio-Pharm Solutions Co., Ltd., priority 2013, dated 2018).
Like-named read-outs stand apart in the source and are kept apart here.

How the values were obtained:
SNL model = assay: Antiallodynic activity in the Chung model (SNL, Spinal Nerve Ligation; von Frey); type: in vivo, Sprague-Dawley rats
Protocol: Male Sprague-Dawley rats (200-220 g, Orient Bio, Korea) were habituated for 1 week before the experiment and allowed free access to food and water throughout the experimentation. Room temperature and humidity were maintained at 24±2° C. and 50±10%, respectively. The neuropathic surgery (SNL, Spinal Nerve Ligation) model was done as described in Kim and Chung (1992). Briefly, an animal was put under gaseous anesthesia with isoflurane and NO2 with a 4:4 flow ratio. The left lumbar spinal nerves L5 and L6 were isolated and tightly ligated with 4-0 silk thread. The wound was treated with a gentamicin antibiotic solution (4 mg/kg, 4 ul/g by bodyweight), and the wound muscle was closed with Catgut® chrome 4/0 thread and the skin was closed with Dafilon 4/0 thread. Sham controls were prepared in the same manner with the spinal nerves were exposed, but no ligated L5 and L6 nerves. Preparation of the vehicle controls were identical to the group treated with compound, except for administration of vehicles without compound in the vehicle control group.
Tactile sensitivity (mechanical allodynia) was evaluated using von Frey monofilaments before and after treatment and animals the animals were included in the study only if the withdrawal threshold value was less than 4 g. One week after surgery, SNL-operated animals (n=4˜6), sham-operated animals (n=4˜10) and vehicle-operated animals (n=4˜13) were tested for tactile sensitivity with von Frey monofilaments with 3 trials in each animal. All animals were placed in a stainless steel mesh chamber and habituated for 30 min in the test cage. The tactile sensitivity for ipsilateral hind paw was measured using the up-and-down method (Dixon, 1980) with seven von Frey monofilaments (0.4, 1, 2, 4, 6, 8, and 15 g) in 3 trials. The tactile sensitivity test was followed by Dixon's method (Dixon, 1980). The 50% paw withdrawal threshold for each paw was calculated using the following formula: [Xth] log=[vFr] log+ky where [vFr] is the force of the last von Frey used, k=0.2249 which is the average interval (in log units) between the von Frey monofilaments, and y is a value that depends upon the pattern of withdrawal responses (Dixon, 1980).
All animals were fasted for 18 h before the administration of the compounds. The antiallodynic effect of the compounds were evaluated at the various doses (n=5˜6), orally administered in a volume of 5 ul/g by bodyweight in a vehicle of 30% (v/v) PEG 400 (Example 7) or 20% (v/v) Tween 80 (Examples 5 and 6) or saline. […]
The relative values compared to the sham group (% control) were calculated and are shown in Table 5, which show an antiallodynic effect of the test compounds in the SNL model in rats.

[1] = tested on: acetic acid-induced writhes; assay: Writhing test (acetic acid); type: in vivo, ICR mice
Protocol: To examine the pain relief effect of the sulfamate derivative compounds, a writhing test was referring to Fischer, L. G. et al. (2008).
ICR mice (male, 24-28 g; Orient Bio, Korea) were habituated before test in test room for 1 hour. Animals were fasted for 2 hr before administration of compounds. […] All compounds were dissolved in a vehicle of 30% (v/v) PEG 400 or 20% (v/v) Tween 80. The control group was treated with the vehicle without compounds.
[…] Animals were habituated in the cage for 5 min. 5 min after habituation, the number of writhes (abdominal constriction) was counted for 15 minutes referring to Korzeniewska-Rybicka, I. et al. (1998) and compared with that of the control.

CFA-induced pain model = assay: Antiallodynic activity on Complete Freund's Adjuvant (CFA)-induced inflammatory pain model (von Frey); type: in vivo, Sprague-Dawley rats; settings: Rattus norvegicus, ip; for response vs control in vivo at 25 mg/kg: read-out: CFA model: effect (%) compared to control
Protocol: Male, Sprague-Dawley rats (200-220 g, Nara Bio, Korea) were habituated for 1 week before surgery and allowed free access to food and water throughout the experimentation. Room temperature and humidity were maintained at 24±2° C. and 50±10%, respectively.
CFA-induced inflammatory pain was induced by the procedure of Nagakura et al. (2003) and Gregory P. et al. (2010) with minor modifications. CFA (sigma, USA) was injected into the left plantar with a 100 ul volume under gaseous anesthesia with isoflurane and NO2 with a 4:4 flow ratio. Sham controls were injected with 100 ul of saline and preparation of the vehicle controls were identical to the group treated with compound, except for administration of vehicles without compound in the vehicle control group.
Tactile sensitivity (mechanical allodynia) was evaluated using von Frey monofilaments before and after treatment, and the animals were included in the study only if the withdrawal threshold value was less than 4 g. One week after surgery, CFA-infused animals (n=4˜6), sham-operated animals (n=12), and vehicle-operated animals (n=17) were tested for tactile sensitivity with von Frey monofilaments, with 3 trials for each animal. All animals were placed in a stainless steel mesh chamber and habituated for 30 min in the test cage. The tactile sensitivity for the ipsilateral hind paw was measured using the up-and-down method (Dixon, 1980) with seven von Frey monofilaments (0.4, 1, 2, 4, 6, 8, and 15 g) in 3 trials. The tactile sensitivity test was followed by Dixon's method (Dixon, 1980). The 50% paw withdrawal threshold for each paw was calculated using the following formula: [Xth] log=[vFr] log+ky where [vFr] is the force of the last von Frey used, k=0.2249 which is the average interval (in log units) between the von Frey monofilaments, and y is a value that depends upon the pattern of the withdrawal responses (Dixon, 1980).
The antiallodynic effect of the compound of Example was evaluated at the doses of 10, 30 and 60 mg/kg (n=4˜6), and were intraperitoneally administered in a volume of 5 ul/g by bodyweight in a vehicle of 30% (v/v) PEG. […]
The relative values compared to the sham (% control) were calculated and are shown in Table 4, which show an antiallodynic effect of the compound of examples in the CFA-induced pain model in rats.

[2] = tested on: Post operation-induced pain model; assay: Antiallodynic activity on post operative pain-induced pain model (von Frey); type: in vivo, Sprague-Dawley rats
Protocol: Male Sprague-Dawley rats (Orient Bio, Korea), 300-320 g, total of 201 rats were used (details in Table 7). Rats were habituated at least 3 days before surgery and free access to food and water (room temperature and humidity were maintained at […] and 50±10%, respectively). The process of performing the post-operation model's surgery was adapted from Brennan et al (1996). At first, rats with allodynia (threshold valueless than 8 g) were excluded in Pre-von Frey Test. During the post-operation surgery, rats were anesthetized under gaseous anesthesia with 2% isoflurane. Rats were laid face down on a plate fixed at 37° C. to prevent against hypothermia. The ipsilateral plantar aspect (left side) of the hind paw was prepared in a sterile manner with a 10% povidone-iodine solution. A longitudinal incision (1 cm) (FIG. 2-A) was made with a blade (number 11) through the skin and fascia of the ipsilateral plantar aspect of the foot, starting from 0.5 cm below the proximal edge of the heel and extending toward the toes. Rats' plantar muscles were elevated and incised longitudinally (FIG. 2-B). After hemostasis with gentle pressure, the skin was opposed with 2 mattress sutures (4-0 Dafilon) (FIG. 2-C). The wound site was covered with a 10% povidone-iodine solution gauze and injected with antibiotics (gentamicin, 8 mg/kg, ip). The sutures were removed under halothane anesthesia approximately 30 hours later, at the end of post-operative day 1.
After 2-3 days of recovery, rats with a good response (threshold less than 4 g) in Pre-von Frey Test were selected. According to this response, we made three groups with each group having equal average responses: Group 1, post-operation and drug treated; Group 2, post-operation and vehicle treated; Group 3, no post-operation and vehicle treated. In this study, Group 3 was the sham control (positive) group. The group 2 was used to check for possible failures to generate post-operative pain.
For efficacy measure, the threshold value of group C was assigned 100% efficacy, and the percentage of the threshold values of group A compared to group C (for each different dose level) were calculated as the efficacies. Base on these efficacy values, ED50 was calculated using log fitting. If there was no clear ED50, then we marked the percent efficacy at the highest tested dose or larger than highest tested dose.
For pain threshold test, all animals were placed in a stainless steel meshed chamber and habituated for 30 min in the test box. The tactile sensitivity of the ipsilateral hind paw was measured using the up-and-down method (Dixon, 1980) with seven von Frey monofilaments (0.4, 1, 2, 4, 6, 8, and 15 g) using 3 trials. The 50% paw withdrawal threshold for each paw was calculated using the following formula: [Xth] log=[vFr] log+ky, where [vFr] is the force of the last von Frey filament used, k=0.2249 which is the average interval (in log units) between the von Frey monofilaments, y which is a value that depends upon the pattern of withdrawal responses, and Xth which is the threshold value (Dixon, 1980).
Drugs were dissolved 30% PEG400 for example 60, 0.9% saline for Pregabalin, 20% Tween80 for Tylenol, 0.9% saline for Topiramate. These vehicles were selected depending on the compound's solubility. Intraperitoneal injection (5 μl/g) was done for all drugs.
The relative values compared to the sham (% control) were calculated and shown in Table 8, which show an antiallodynic effect of the compound of examples on Post operation-induced pain model in rats.

[3] = tested on: Vincristine-induced pain model; assay: Antiallodynic activity in the vincristine-induced pain model (von Frey); type: in vivo, Sprague-Dawley rats; settings: rat, intraperitoneal
Protocol: Male, Sprague-Dawley rats (300-320 g, Nara Bio, Korea) were habituated for 1 week before surgery and allowed free access to food and water throughout the experimentation. Room temperature and humidity were maintained at 24±2° C. and 50±10%, respectively.
The vincristine-induced pain model was established by the procedure of Natsuko et al. (2001) with minor modifications. Vincristine was intravenously infused continuously for 14 days using a mini-osmotic pump as follows: Vincristine sulfate solution (Hospira, Australia) was diluted with 0.9% saline to a final dose of 30 ug/kg. The pumps (Alzet Model 2002, USA) were filled with the vincristine solution and primed by incubation at 37° C. for 4 h before the infusion. Briefly, animals were put under gaseous anesthesia with isoflurane and NO with a 4:4 flow ratio. A catheter made from PE-60 tubing was inserted into an external jugular vein in the rat. Sham controls were prepared in the same manner, with the external jugular vein exposed, but not cut down. Preparation of the vehicle controls were identical to the group treated with compound, except for administration of vehicles without compound in the vehicle control group.
Tactile sensitivity (mechanical allodynia) was evaluated using von Frey monofilaments before and after treatment, and the animals were included in the study only if the withdrawal threshold value was less than 4 g. One week after surgery, vincristine-infused animals (n=6), sham-operated animals (n=12) and vehicle-operated (n=18) animals were tested for tactile sensitivity with von Frey monofilaments with 3 trials in each animal. All animals were placed in a stainless steel mesh chamber and habituated for 30 min in the test cage. The tactile sensitivity for the ipsilateral hind paw was measured using the up-and-down method (Dixon, 1980) with seven von Frey monofilaments (0.4, 1, 2, 4, 6, 8, and 15 g) in 3 trials. The tactile sensitivity test was followed by Dixon's method. The 50% paw withdrawal threshold for each paw was calculated using the following formula: [Xth] log=[vFr] log+ky where [vFr] is the force of the last von Frey used, k=0.2249 which is the average interval (in log units) between the von Frey monofilaments, and y is a value that depends upon the pattern of withdrawal responses (Dixon, 1980).
[…] The test was performed at the peak time of efficacy (0.5 hr) after compound administration.
The relative values compared to the sham (% control) were calculated and are shown in Table 11, which show an antiallodynic effect of the compound of examples in the vincristine-induced pain model in rats.

**Q.** For `CC1(C)Oc2ccccc2C(COS(N)(=O)=O)O1` (racemic) [Example 3, (2,2-dimethyl-4H-benzo[d][1,3]dioxin-4-yl))methyl sulfamate], which response vs control in vivo at 3.5 mg/kg (SNL model; rat, oral, 3.5 mg/kg administered, 0.5 h, read-out: SNL model: effect (%) compared to control) is on record?
**A.** 35%

**Q.** And the “Writh test: effect (%) compared to control” value ([1]; mouse, oral, 80 mg/kg administered, 0.5 h)?
**A.** (63.9%, 0.5 h)

**Q.** For `CC1(C)Oc2ccccc2[C@H](COS(N)(=O)=O)O1` [Example 1, ((R)-2,2-dimethyl-4H-benzo[d][1,3]dioxin-4-yl)methyl sulfamate], which ED50 (SNL model; rat, oral, 1 h, read-out: SNL model: ED50) is on record?
**A.** 9.9 mg/kg

**Q.** What about the ED50 ([1]; mouse, oral, 0.25 h, read-out: Writh test: ED50) of the same compound?
**A.** 56.8 mg/kg

**Q.** Which ED50 (CFA-induced pain model; 0.5 h, read-out: CFA model: ED50 mg/kg) does the source give for `CC1(C)Oc2ccccc2[C@@H](COS([NH-])(=O)=O)O1.[Na+]` [Example 59, Sodium (S)-(((2,2-dimethyl-4H-benzo[d][1,3]dioxin-4-yl)methoxy)sulfonyl)amide Trihydrate] here?
**A.** 20.2 mg/kg

**Q.** What about the ED50 ([1]; Mus musculus, po, 0.5 h, read-out: Writh test: ED50 mg/kg) of the same compound?
**A.** 81.4 mg/kg

**Q.** What about the ED50 ([2]; Rattus norvegicus, ip, 0.5 h, read-out: Post Operation: ED50 mg/kg) of the same compound?
**A.** 10.9 mg/kg

**Q.** And the ED50 ([3]; ip, 0.5 h)?
**A.** 2.6 mg/kg

**Q.** With `CC1(C)Oc2ccc(Cl)cc2C(COS([NH-])(=O)=O)O1.[Na+]` (stereo not drawn) [Example 63, Sodium (((6-chloro-2,2-dimethyl-4H-benzo[d][1,3]dioxin-4-yl)methoxy)sulfonyl)amide] as the compound, how does the melting point read?
**A.** 129.3 to 132.3 °C

**Q.** And the response vs control in vivo at 3.5 mg/kg (SNL model; Rattus norvegicus, po, read-out: SNL model: effect (%) compared to control, rat, oral, 3.5 mg/kg administered, time not given)?
**A.** 32.9%

**Q.** What about the response vs control in vivo at 25 mg/kg (CFA-induced pain model) of the same compound?
**A.** 16.9%

**Q.** What about the “Post Operation: effect (%) compared to control” value ([2]; rat, intraperitoneal, 18.9 mg/kg administered, time not given) of the same compound?
**A.** (26.6%)

**Q.** With `CC1(C)Oc2ccccc2[C@@H](COS([NH-])(=O)=O)O1.[K+]` [Example 71, Potassium (S)-(((2,2-dimethyl-4H-benzo[d][1,3]dioxin-4-yl)methoxy)sulfonyl)amide] as the compound, how does the response vs control in vivo at 3.5 mg/kg (SNL model; Rattus norvegicus, po, 0.5 h, read-out: SNL model: effect (%) compared to control, rat, oral, 3.5 mg/kg administered, 0.5 h) read?
**A.** 15.9%

**Q.** What about the response vs control in vivo at 25 mg/kg (CFA-induced pain model) of the same compound?
**A.** 24.7%

**Q.** What about the “Vincristine model: effect (%) compared to control” value ([3]; 2.4 mg/kg administered, time not given) of the same compound?
**A.** (96.2%)
